Our source for the IC50 values is patent US20110015235A1, “NOVEL PHENYLETHYNYL DERIVATIVES OF 8-AZA-BICYCLO[3.2.1]OCTANE AND THEIR USE AS MONOAMINE NEUROT[…]-UPTAKE INHIBITORS” (NeuroSearch A/S, priority 2008, published 2011).

What all share (format): biochemical
Test [1] relates to serotonine (5-HT) reuptake in synaptosomes. Kind of test: Inhibition of 3H-5-HT reuptake in synaptosomes. The note with it: read-out: 5-HT-uptake IC50. The method, then:
(§1) Compounds were tested for their ability to inhibit the reuptake of the monoamine neurotransmitters dopamine (DA) noradrenaline (NA) and serotonine (5-HT) in synaptosomes as described in WO 97/16451 (NeuroSearch A/S).
(§2) The test values are given as IC50 (the concentration (μM) of the test substance which inhibits the specific binding of ^3H-DA, ^3H-NA, or ^3H-5-HT by 50%).

For test [2], the system named is dopamine (DA) reuptake in synaptosomes. Kind of test: Inhibition of 3H-DA reuptake in synaptosomes. The note with it: read-out: DA-uptake IC50. Here is the method:
as §1, §2

Test [3] deals with noradrenaline (NA) reuptake in synaptosomes. Kind of test: Inhibition of 3H-NA reuptake in synaptosomes. The following applies: read-out: NA-uptake IC50. The method, then: as §1, §2

Molecules are shown by their SMILES. Where a name gives a salt, the structure may show the parent alone.

`CN1[C@@H]2CC[C@H]1C[C@H](Oc1ccc(C#Cc3ccccc3)cc1)C2` [Compound C1, exo-8-Methyl-3-(4-phenylethynyl-phenoxy)-8-aza-bicyclo[3.2.1]octane fumaric acid salt]: the values for the IC50 in test [1], in test [2] and in test [3] were 0.72 µM, 0.024 µM and 0.079 µM, respectively.
